This data set can be described thus: logP by HPLC on reverse-phase column (EEC Directive 79/831 Annex V.A8). It counts as physicochemical. As to conditions: for chromatographic logP: reverse-phase C18 HPLC column, pH 2.7, HPLC. As for the experimental part:
The logP values reported in the above Tables and Preparation Examples were determined according to EEC Directive 79/831 Annex V.A8 by HPLC (High Performance Liquid Chromatography) on a reverse-phase column (C18). Temperature 43° C.

[1] abbreviates: HPLC, C18 reverse phase, 43° C., acidic range pH 2.7, calibration with alkan-2-ones.
The mark [2] stands for this setting: C18 reverse phase, 43° C., acidic range pH 2.7, calibration with alkan-2-ones.

In patent publication US8889878B2, “Haloalky-substituted amides as insecticides and acaricides” (Bayer CropScience AG, priority 2009, dated 2014) one finds logP and chromatographic logP data, which are given here for 45 compounds.

For orientation: logP means the decadic logarithm of the partition coefficient of the neutral form, usually between octanol and water. Low values mean lower lipophilicity, high ones higher lipophilicity. As usually defined, the chromatographic logP is a lipophilicity value derived from retention on a column. Lower therefore signals lower lipophilicity.

With `COC(=O)C(C)NC(=O)c1ccc(C=CC(=O)NC(c2cccc(C(F)(F)F)c2)C(F)(F)F)cc1Cl` (mixture of isomers) [Ia-191], for the setting “HPLC-MS”, the logP entry is on record as “HPLC-MS: logP = 3.29; mass”. The same measure, in the same setting: as for `CCC(C)NC(=O)c1ccc(C=CC(=O)NC(c2cccc(C(F)(F)F)c2)C(F)(F)F)cc1Cl` (mixture of isomers) [Ia-192], the entry is “HPLC-MS: logP = 3.71; mass”; as for `O=C(C=Cc1ccc(C(=O)NCC=CCl)c(Cl)c1)NC(c1cccc(C(F)(F)F)c1)C(F)(F)F` (mixture of isomers) [Ia-193], “HPLC-MS: logP = 3.58; mass”. Under setting [1], `ON=C(c1cc(F)cc(C(F)(F)F)c1)C(F)(F)F` (racemic) [2,2,2-Trifluoro-1-[3-fluoro-5-(trifluoromethyl)phenyl]ethanone oxime] came in with a logP of 3.21. This compound also came in with a chromatographic logP under setting [2] of 3.17. Take `Cn1nccc1NC(=O)c1ccc(/C=C/C(=O)NC(c2cccc(C(F)(F)F)c2)C(F)(F)F)cc1Cl` (racemic) [Ia-188]: the logP entry (HPLC-MS) is listed as “HPLC-MS: logP = 2.73; mass”. Still for that read-out and setting: in the case of `Cn1nccc1CNC(=O)c1ccc(/C=C/C(=O)NC(c2cccc(C(F)(F)F)c2)C(F)(F)F)cc1Cl` (racemic) [Ia-189] it was “HPLC-MS: logP = 2.93; mass”.

For `O=C(/C=C/c1ccc(C(=O)Nc2ncc(Cl)cn2)c(Cl)c1)NC(c1cccc(C(F)(F)F)c1)C(F)(F)F` (racemic) [Ia-199], the logP result (HPLC-MS) is recorded as “HPLC-MS: logP = 3.47; mass”. The same measure, in the same setting: in the case of `N#Cc1cc(/C=C/C(=O)NC(c2cccc(C(F)(F)F)c2)C(F)(F)F)ccc1-n1cccn1` (racemic) [Ia-201] it was “HPLC-MS: logP = 3.5; mass”; in that of `N#Cc1cnn(-c2ccc(/C=C/C(=O)NC(c3ccc(F)c(Cl)c3)C(F)(F)F)cc2Cl)c1` (racemic) [Ia-202], “HPLC-MS: logP = 3.77; mass”; in that of `O=C(/C=C/c1ccc(C(=O)Nc2cnccn2)c(Cl)c1)NC(c1cccc(C(F)(F)F)c1)C(F)(F)F` (racemic) [Ia-216], “HPLC-MS: logP = 3.31; mass”. For the compound `O=C(NC1CC1)c1cc2cc(C(=O)NC(c3cccc(C(F)(F)F)c3)C(F)(F)F)n(Cc3ccccc3)c2cc1Cl` (racemic) [Ic-28], the logP result under setting [1] was “HPLC-MS: logP = 4.25; mass”. As to `CNC(=O)c1cc2cc(C(=O)NC(c3cccc(C(F)(F)F)c3)C(F)(F)F)n(C)c2cc1Cl` (racemic) [Ic-30], the logP result under setting [1] is listed as “HPLC-MS: logP = 3.2; mass (m/z):”. On the same count and under the same terms, as for `C#CC(C)NC(=O)c1cc2cc(C(=O)NC(c3cccc(C(F)(F)F)c3)C(F)(F)F)n(C)c2cc1Cl` (racemic) [Ic-31], the entry is “HPLC-MS: logP = 3.73; mass”; as for `Cn1c(C(=O)NC(c2cccc(C(F)(F)F)c2)C(F)(F)F)cc2cc(C(=O)NC3CSC3)c(Cl)cc21` (racemic) [Ic-33], “HPLC-MS: logP = 3.82; mass”. `NC(c1cc(Cl)cc(C(F)(F)F)c1)C(F)(F)F` (stereo not shown) [1-[3-Chloro-5-(trifluoromethyl)phenyl]-2,2,2-trifluoroethanamine]: the chromatographic logP under setting [2] was found to be 2.94. The compound `NCc1ccc(Br)cc1C(F)(F)F` [1-[4-Bromo-2-(trifluoromethyl)phenyl]methanamine] registered a chromatographic logP under setting [2] of 0.92. Same read-out and setting: in the case of `NC(c1cc(Cl)c(Cl)c(Cl)c1)C(F)(F)F` (stereo not shown) [2,2,2-Trifluoro-1-(3,4,5-trichlorophenyl)ethanamine] it was 3.17; in that of `O=C(c1cc(F)cc(C(F)(F)F)c1)C(F)(F)F` [2,2,2-Trifluoro-1-[3-fluoro-5-(trifluoromethyl)phenyl]ethanone], 2.54; in that of `CC(F)(F)C(=O)c1cccc(C(F)(F)F)c1` [2,2-Difluoro-1-[3-(trifluoromethyl)phenyl]propan-1-one], 3.61. Under setting [2], `O=C(O)c1ccc2cc(C(=O)NC(c3cccc(C(F)(F)F)c3)C(F)(F)F)oc2c1` (stereo not shown) [2-({2,2,2-Trifluoro-1-[3-(trifluoromethyl)phenyl]ethyl}carbamoyl)-1-benzofuran-6-carboxylic acid] had a chromatographic logP of 3.1. The same measure, in the same setting: as for `O=C(/C=C/c1ccc(C(=O)O)c(Br)c1)NC(c1cccc(C(F)(F)F)c1)C(F)(F)F` (stereo not shown) [2-Bromo-4-[(1E)-3-oxo-3-({2,2,2-trifluoro-1-[3-(trifluoromethyl)phenyl]ethyl}amino)prop-1-en-1-yl]benzoic acid], the figure is 3.15.

As to `O=C(/C=C/c1ccc(C(=O)O)c(Cl)c1)NC(c1cccc(C(F)(F)F)c1)C(F)(F)F` (stereo not shown) [2-Chloro-4-[(1E)-3-oxo-3-({2,2,2-trifluoro-1-[3-(trifluoromethyl)phenyl]ethyl}amino)prop-1-en-1-yl]benzoic acid], under setting [2], the chromatographic logP amounted to 3.1.

On to `O=C(C#Cc1ccc(C(=O)NC2CC2)c(Cl)c1)NC(c1cccc(C(F)(F)F)c1)C(F)(F)F` (stereo not shown) [2-Chloro-N-cyclopropyl-4-[3-oxo-3-({2,2,2-trifluoro-1-[3-(trifluoromethyl)phenyl]ethyl}amino)prop-1-yn-1-yl]benzamide], for which the chromatographic logP under setting [2] amounted to 3.34. Still for that read-out and setting: as for `O=C(NC1CC1)c1ccc(I)cc1Cl` [2-Chloro-N-cyclopropyl-4-iodobenzamide], the figure is 2.13.

Under setting [2], `Cc1cc(/C=C/C(=O)NC(c2cccc(C(F)(F)F)c2)C(F)(F)F)ccc1C(=O)O` (stereo not shown) [2-Methyl-4-[(1E)-3-oxo-3-({2,2,2-trifluoro-1-[3-(trifluoromethyl)phenyl]ethyl}amino)prop-1-en-1-yl]benzoic acid] gave a chromatographic logP of 3.14.

Consider `Cc1cc(Br)ccc1C(=O)NCc1ccccn1` [4-Bromo-2-methyl-N-(pyridin-2-ylmethyl)benzamide], for which the chromatographic logP under setting [2] stood at 1.4. On the same count and under the same terms, in the case of `O=C(Nc1ccccn1)c1ccc(Br)cc1C(F)(F)F` [4-Bromo-N-(pyridin-2-yl)-2-(trifluoromethyl)benzamide] it was 2.57; in that of `O=C(NCc1ccccn1)c1ccc(Br)cc1C(F)(F)F` [4-Bromo-N-(pyridin-2-ylmethyl)-2-(trifluoromethyl)benzamide], 1.56.

As for `O=C(NC1CC1)c1ccc(Br)cc1C(F)(F)F` [4-Bromo-N-cyclopropyl-2-(trifluoromethyl)benzamide], under setting [2], the chromatographic logP amounted to 2.13.

With `O=C(/C=C/c1ccc(C(=O)O)c(C(F)(F)F)c1)NC(c1cccc(C(F)(F)F)c1)C(F)(F)F` (stereo not shown) [4-[(1E)-3-Oxo-3-({2,2,2-trifluoro-1-[3-(trifluoromethyl)phenyl]ethyl}amino)prop-1-en-1-yl]-2-(trifluoromethyl)benzoic acid], the chromatographic logP under setting [2] amounted to 3.29. Still for that read-out and setting: in the case of `NCc1ccc2oc(C(=O)NC(c3cccc(C(F)(F)F)c3)C(F)(F)F)cc2c1` (stereo not shown) [5-(Aminomethyl)-N-{2,2,2-trifluoro-1-[3-(trifluoromethyl)phenyl]ethyl}-1-benzofuran-2-carboxamide] it was 2.02.

For the compound `CC(C)(C)OC(=O)c1ccc2cc(C(=O)O)oc2c1` [6-(tert-Butoxycarbonyl)-1-benzofuran-2-carboxylic acid], the chromatographic logP under setting [2] is 2.58. Consider `CCOC(=O)c1cc2ccc(C(=O)OC(C)(C)C)cc2o1` [6-tert-Butyl 2-ethyl 1-benzofuran-2,6-dicarboxylate], for which the chromatographic logP under setting [2] turned out to be 4.32. Regarding `NC1CCc2cc(/C=C/C(=O)NC(c3cccc(C(F)(F)F)c3)C(F)(F)F)ccc21` (stereo not shown) [(2E)-3-(1-Amino-2,3-dihydro-1H-inden-5-yl)-N-{2,2,2-trifluoro-1-[3-(trifluoromethyl)phenyl]-ethyl}acrylamide], under setting [2], the chromatographic logP stood at 1.7.

With `Nc1cccc(/C=C/C(=O)NC(c2cccc(C(F)(F)F)c2)C(F)(F)F)c1` (stereo not shown) [(2E)-3-(3-Aminophenyl)-N-{2,2,2-trifluoro-1-[3-(trifluoromethyl)phenyl]ethyl}acrylamide], the chromatographic logP under setting [2] worked out at 2.88.

Compound `O=C(/C=C/c1cccc([N+](=O)[O-])c1)NC(c1cccc(C(F)(F)F)c1)C(F)(F)F` (stereo not shown) [(2E)-3-(3-Nitrophenyl)-N-{2,2,2-trifluoro-1-[3-(trifluoromethyl)phenyl]ethyl}acrylamide] yielded a chromatographic logP under setting [2] of 3.81. The same measure, in the same setting: as for `N#Cc1cc(/C=C/C(=O)O)ccc1-n1cncn1` [(2E)-3-[3-Cyano-4-(1H-1,2,4-triazol-1-yl)phenyl]acrylic acid], the figure is 0.97; as for `NCc1ccc(/C=C/C(=O)NC(c2cccc(C(F)(F)F)c2)C(F)(F)F)cc1C(F)(F)F` (stereo not shown) [(2E)-3-[4-(Aminomethyl)-3-(trifluoromethyl)phenyl]-N-{2,2,2-trifluoro-1-[3-(trifluoro-methyl)phenyl]ethyl}acrylamide], 1.61; as for `Cc1cc(/C=C/C(=O)O)ccc1C(=O)NC1CC1` [(2E)-3-[4-(Cyclopropylcarbamoyl)-3-methylphenyl]acrylic acid], 1.14.

For the compound `O=C(O)/C=C/c1ccc(C(=O)NC2CC2)c(C(F)(F)F)c1` [(2E)-3-[4-(Cyclopropylcarbamoyl)-3-trifluoromethylphenyl]acrylic acid], the chromatographic logP under setting [2] stood at 1.34. The same measure, in the same setting: as for `N/C(=N\O)c1ccc(/C=C/C(=O)NC(c2cccc(C(F)(F)F)c2)C(F)(F)F)cc1C(F)(F)F` (stereo not shown) [(2E)-3-[4-(N′-Hydroxycarbamimidoyl)-3-(trifluoromethyl)phenyl]-N-{2,2,2-trifluoro-1-[3-(trifluoromethyl)phenyl]ethyl}acrylamide], the figure is 2.55. As for `O=C(O)/C=C/c1ccc(C(=O)NCc2ccccc2)c(C(F)(F)F)c1` [(2E)-3-[4-(Phenylmethyl)carbamoyl)-3-trifluoromethylphenyl]acrylic acid], the logP (pH 2.7) is given as 2.12.

Take `O=C(O)/C=C/c1ccc(C(=O)Nc2ccccn2)c(C(F)(F)F)c1` [(2E)-3-[4-(Pyridin-2-yl)carbamoyl)-3-trifluoromethylphenyl]acrylic acid]: where the note is “pH 2.7”, the logP came out at 1.69. Same read-out and setting: as for `O=C(O)/C=C/c1ccc(C(=O)NCc2ccccn2)c(C(F)(F)F)c1` [(2E)-3-[4-(Pyridin-2-ylmethyl)carbamoyl)-3-trifluoromethylphenyl]acrylic acid], the figure is 0.91. In the case of `CC(C)(C)OC(=O)NCc1ccc(/C=C/C(=O)O)cc1C(F)(F)F` [(2E)-3-[4-{[tert-Butoxycarbonyl)amino]methyl}-3-(trifluoromethyl)phenyl]acrylic acid], under setting [2], the chromatographic logP was 2.67.
